Reference: patent US5227163A, “Lice-repellant compositions” (priority 1992, dated 1993)

Test system: lice
Assay: Standard in vitro test on filter paper (petri-dish lice repellency)
Settings: 10 min, 20±3° C.
Method: Screening tests were performed on many substances of the following groups: terpenes (hydrocarbons), terpenoid alcohols, terpenoid esters, terpenoid aldehydes and ketones, essential oils which contain terpenoids and perfumes which contain terpenoids, as well as various general insect repellents, for lice-repellency. Each experiment included exposure of the lice to different concentrations of the tested substance, and measuring the dose response of those materials.
A petri-dish method was used to examine the repellency of the solutions for lice. A filter paper (Whatman No. 4, 5.5 cm in diameter) was secured in a petri-dish. A 100 μl portion of the test solution was placed on a corduroy patch (1.5 cm^2). The material was allowed to dry for 30 min. at room temperature (20±3° C.) and the patch was placed at the periphery of the petri-dish. A patch treated with a control solution (96% Ethanol) was placed on the opposite side of the dish. Twenty female lice which had been fed 24 hours previously were placed in the middle of the dish. A box was placed over the dish and it was covered with a dark cloth in order to keep the test area in the dark. The experiment was carried out at room temperature (20°±3° C.) and lasted 10 min. The number of lice on the treated and controlled patches as well as on the area between the patches was recorded in a protocol. The experiment was repeated three times for each sample.
% repellency was calculated by the following formula:
where: T=number of lice on the treated patch
C=number of lice on the untreated patch
The following terms were recorded:
RC80 =Concentration giving 80% repellency.
RC50 =Concentration giving 50% repellency.
RD80 =mg/cm^2 giving 80% repellency.
RD50 =mg/cm^2 giving 50% repellency.

SMILES | RC50 (Concentration giving 50% repellency) [%] | RC80 (Concentration giving 80% repellency) [%] | RD80 (mg/cm^2 giving 80% repellency) [mg/cm^2] | RD50 (mg/cm^2 giving 50% repellency) [mg/cm^2]
CC1=CC=C(C(C)C)CC1 | 0.900 | 1.500 | 1.050 | 
CC(=O)O[C@@H]1C[C@H]2CC[C@]1(C)C2(C)C (racemic) [ISO BORNYL ACETATE] | 0.600 | 0.800 | 0.560 | 
C=C(C)[C@H]1CC=C(C)CC1 [+ LIMONENE] | 2.000 | 3.000 | 2.100 | 
C=C(C)[C@@H]1CC=C(C)CC1 [- LIMONENE] | 3.000 | 4.000 | 2.800 | 
CC1=CCC2C(C1)C2(C)C (centres unmarked) [CARENE] | 1.000 | 2.000 | 1.400 | 
C=C(C)C1CC=C(C)[C@@H](O)C1 (some centres unmarked) [CARVEOL, carveol] | 0.600 | 1.500 | 1.050 | 
C=C(C)C1CC=C(C)C(OC(=O)CC)C1 (centres unmarked) [CARVYL PROPRIONATE, carvyl propionate] | 0.200 | 0.600 | 0.420 | 0.140
CC(C)=CCCC(C)=CC=O [CITRAL] | 0.300 | 0.600 | 0.420 | 
CC1(C)C2CCC(CO)C1C2 (stereo not drawn) [Cis MYRTANOL] | 0.600 | 1.000 | 0.700 | 0.420
CC1=CC(O)C2CC1C2(C)C (stereo not drawn) [Cis VERBENOL, cis-verbenol] | 1.000 | 2.000 | 1.400 | 0.700
C=C(C)C1CCC(C)C(O)C1 (centres unmarked) [DIHYDRO CARVEOL, dihydrocarveol] | 0.400 | 0.900 | 0.630 | 0.280
C=C(C)C1CCC(C)C(=O)C1 (centres unmarked) [DIHYDRO CARVONE] | 0.200 | 0.500 | 0.350 | 
C=CC(C)CCCC(C)(C)O (centres unmarked) [DIHYDRO MYRCENOL, dihydro-myrcenol] | 0.600 | 0.800 | 0.560 | 
C=C(C)C1CCC(C)C(OC(C)=O)C1 (centres unmarked) [DIH[…]] | 0.150 | 0.300 | 0.210 | 0.105
CC(C)=CCC/C(C)=C/CO [GERANIOL, geraniol] | 0.005 | 0.020 | 0.014 | 
